Assay results as given in ChEMBL document CHEMBL1122825, “Peptide sweeteners. 8. Synthesis and structure-taste relationship studies of L-aspartyl-D-alanyl tripeptides” (J Med Chem, 1985).
Where a SMILES comes first, the peptide text is derived from it. [ ]: non-standard residue; d: D form. Ac6c = NC1(C(=O)O)CCCCC1; Ac5c = NC1(C(=O)O)CCCC1; Ac4c = NC1(C(=O)O)CCC1; Deg = CCC(N)(CC)C(=O)O; Ac3c = NC1(C(=O)O)CC1; Aib = CC(C)(N)C(=O)O

Experiment: Compound is evaluated for sweet potency; -=Bitter
With `COC(=O)C1(NC(=O)[C@H](C)NC(=O)[C@@H](N)CC(=O)O)CCCCCC1` the Sweetness potency was “Bitter”. For `COC(=O)C1(NC(=O)[C@H](C)NC(=O)[C@@H](N)CC(=O)O)CCCCCCC1`, the Sweetness potency was “Bitter”.

Experiment: Compound is evaluated for sweet potency; +=Sweet
For `COC(=O)C1(NC(=O)[C@H](C)NC(=O)[C@@H](N)CC(=O)O)CC1` (H-Asp-Ala-[Ac3c]-OMe), the Sweetness potency was “Sweet”. For `COC(=O)C1(NC(=O)[C@H](C)NC(=O)[C@@H](N)CC(=O)O)CCC1` (H-Asp-Ala-[Ac4c]-OMe), the Sweetness potency was “Sweet”. In the case of `COC(=O)C1(NC(=O)[C@H](C)NC(=O)[C@@H](N)CC(=O)O)CCCC1` (H-Asp-Ala-[Ac5c]-OMe), the Sweetness potency is reported as “Sweet”. With `COC(=O)C1(NC(=O)[C@H](C)NC(=O)[C@@H](N)CC(=O)O)CCCCC1` (H-Asp-Ala-[Ac6c]-OMe) the Sweetness potency was “Sweet”. In the case of `COC(=O)C(C)(C)NC(=O)[C@H](C)NC(=O)[C@@H](N)CC(=O)O` (H-Asp-Ala-[Aib]-OMe), the Sweetness potency is reported as “Sweet”. With `CCC(CC)(NC(=O)[C@H](C)NC(=O)[C@@H](N)CC(=O)O)C(=O)OC` (H-Asp-Ala-[Deg]-OMe) the Sweetness potency was “Sweet”.
